This is an account of results in patent EP1910527B1, “MALTOSE-1-PHOSPHATE-PRODUCING ENZYME” (Kao Corporation, priority 2005, dated 2007).

Test [1] relates to M-1-P-producing enzyme. Kind of test: Maltose transfer reaction without phosphate, HPLC analysis of products. In kind it is biochemical, Corynebacterium glutamicum JCM1321. Conditions: 2.0% substrate, 0.16 U/mL enzyme, one hour at 37°C. As to the method: As substrates, 2% dextrin MAX 1000 (Matsutani Chemical) and 1M phosphate buffer (pH 7) were employed. To the substrates, a suitably diluted enzyme was added, and the mixture was incubated for one hour at 37°C, followed by quantification of the produced […] through HPLC. Specifically, quantification of […] was performed through use of a DX500 chromatography system (product of DIONEX Corporation) (column: CarboPac PA1 (4x250 mm), detector: ED40 pulsed amperometric detector, eluent: (solution A) 100mM sodium hydroxide; (solution B) 100mM sodium hydroxide containing 1M sodium acetate). Linear gradient analysis was employed (initial concentration: solution.A 90% : solution B 10%, 0-17 min.: solution A 18.5% : solution B 81.5%). As standard substances, 100mM and 50mM […] products (product of SIGMA) were employed. […] One enzyme unit (1U) is defined as the amount of enzyme that produces 1 μM of […] per minute. 0.16 U/mL […]-producing enzyme was allowed to react with each of the substrates having different chain lengths (glucose, maltose, maltotriose, maltotetraose, maltopentaose, maltohexaose (Seikagaku Corporation)) (2.0%) for one hour at 37°C, and the reaction mixture was subjected to HPLC for analysis in a manner similar to that described in Example 1 (the results are represented as peak area). The retention times of maltooligosaccharides (DP=1 to 11) were estimated through analysis of dextrin (Matsutani Chemical).

In test [2] the test system is M-1-P-producing enzyme. The experiment in a line: Substrate specificity: production of M-1-P from phosphate and saccharide substrates, HPLC quantification. In kind it is biochemical, Corynebacterium glutamicum JCM1321. The settings on record: 2.5% substrate, 250mM phosphate buffer (pH 7), 0.16 U/mL enzyme, 15 hours at 37°C. The method, then: As substrates, 2% dextrin MAX 1000 (Matsutani Chemical) and 1M phosphate buffer (pH 7) were employed. To the substrates, a suitably diluted enzyme was added, and the mixture was incubated for one hour at 37°C, followed by quantification of the produced […] through HPLC. Specifically, quantification of […] was performed through use of a DX500 chromatography system (product of DIONEX Corporation) (column: CarboPac PA1 (4x250 mm), detector: ED40 pulsed amperometric detector, eluent: (solution A) 100mM sodium hydroxide; (solution B) 100mM sodium hydroxide containing 1M sodium acetate). Linear gradient analysis was employed (initial concentration: solution.A 90% : solution B 10%, 0-17 min.: solution A 18.5% : solution B 81.5%). As standard substances, 100mM and 50mM […] products (product of SIGMA) were employed. […] One enzyme unit (1U) is defined as the amount of enzyme that produces 1 μM of […] per minute. To 2.5% Dextrin MAX 1000 (Matsutani Chemical) and 250mM phosphate buffer (pH 7), 0.16 U/mL M-1-P-producing enzyme was added, and the mixture was allowed to react for 15 hours at 37°C. In a manner similar to that described in Example 1, […] was quantified. […] To 250mM Phosphate buffer (pH 7) and each of substrates having different chain lengths (glucose, maltose, maltotriose, maltotetraose, maltopentaose, maltohexaose (Seikagaku Corporation)) (2.5%), 0.16 U/mL M-1-P-producing enzyme was added, and the mixture was allowed to react for 15 hours at 37°C. In a manner similar to that described in Example 1, […] was quantified.

`OC[C@H]1O[C@H](O[C@H]2[C@H](O)[C@@H](O)C(O)O[C@@H]2CO)[C@H](O)[C@@H](O)[C@@H]1O` (mixture of isomers) [Maltose]: in the test on M-1-P-producing enzyme [1], the “Product (Peak area x 10^6): DP=3” value is 0.27 x 10^6, the “Product (Peak area x 10^6): DP=4” value was 0.00 x 10^6, the “Product (Peak area x 10^6): DP=5” value is given as 0.00 x 10^6 and the “Product (Peak area x 10^6): DP=6” value is reported as 0.00 x 10^6. For the same compound, in the test on M-1-P-producing enzyme [1], the “Product (Peak area x 10^6): DP=7” value is recorded as 0.00 x 10^6, the “Product (Peak area x 10^6): DP=8” value is 0.00 x 10^6, the “Product (Peak area x 10^6): DP=9” value is given as 0.00 x 10^6 and the “Product (Peak area x 10^6): DP=10” value is given as 0.00 x 10^6. In the test on M-1-P-producing enzyme [1], the “Product (Peak area x 10^6): DP=11” value is given as 0.00 x 10^6, the “Product (Peak area x 10^6): Glucose” value was 0.19 x 10^6 and the “Product (Peak area x 10^6): Maltose” value is 46.79 x 10^6.

On to `OC[C@H]1OC(O)[C@H](O)[C@@H](O)[C@@H]1O` (some centres unmarked) [Glucose], for which, in the test with M-1-P-producing enzyme [1], the “Product (Peak area x 10^6): DP=3” value is listed as 0.00 x 10^6, the “Product (Peak area x 10^6): DP=4” value is 0.00 x 10^6, the “Product (Peak area x 10^6): DP=5” value is given as 0.00 x 10^6 and the “Product (Peak area x 10^6): DP=6” value is 0.00 x 10^6. Besides, in the test with M-1-P-producing enzyme [1], the “Product (Peak area x 10^6): DP=7” value is reported as 0.00 x 10^6, the “Product (Peak area x 10^6): DP=8” value is listed as 0.00 x 10^6, the “Product (Peak area x 10^6): DP=9” value is given as 0.00 x 10^6 and the “Product (Peak area x 10^6): DP=10” value is listed as 0.00 x 10^6. In the test on M-1-P-producing enzyme [1], the “Product (Peak area x 10^6): DP=11” value is recorded as 0.00 x 10^6, the “Product (Peak area x 10^6): Glucose” value is 65.97 x 10^6 and the “Product (Peak area x 10^6): Maltose” value was 0.00 x 10^6.

On to `OC[C@H]1O[C@H](O[C@H]2[C@H](O)[C@@H](O)[C@@H](O[C@H]3[C@H](O)[C@@H](O)[C@@H](O[C@H]4[C@H](O)[C@@H](O)[C@@H](O[C@H]5[C@H](O)[C@@H](O)[C@@H](O[C@H]6[C@H](O)[C@@H](O)[C@@H](O[C@H]7[C@H](O)[C@@H](O)C(O)O[C@@H]7CO)O[C@@H]6CO)O[C@@H]5CO)O[C@@H]4CO)O[C@@H]3CO)O[C@@H]2CO)[C@H](O)[C@@H](O)[C@@H]1O` (some centres unmarked) [Maltoheptaose], for which the “Amount of maltose-1-phosphate produced” value with M-1-P-producing enzyme [2] was 96.1 µM. In the test with M-1-P-producing enzyme [1], the “Product (Peak area x 10^6): DP=3” value is 0.12 x 10^6, the “Product (Peak area x 10^6): DP=4” value is 0.19 x 10^6, the “Product (Peak area x 10^6): DP=5” value is on record as 9.59 x 10^6 and the “Product (Peak area x 10^6): DP=6” value is 0.00 x 10^6. In addition, in the test with M-1-P-producing enzyme [1], the “Product (Peak area x 10^6): DP=7” value is listed as 6.36 x 10^6, the “Product (Peak area x 10^6): DP=8” value is 0.00 x 10^6, the “Product (Peak area x 10^6): DP=9” value is reported as 3.42 x 10^6 and the “Product (Peak area x 10^6): DP=10” value was 0.00 x 10^6. Also, in the test with M-1-P-producing enzyme [1], the “Product (Peak area x 10^6): DP=11” value was 3.47 x 10^6, the “Product (Peak area x 10^6): Glucose” value is 0.11 x 10^6 and the “Product (Peak area x 10^6): Maltose” value was 0.28 x 10^6.

Take `OC[C@H]1O[C@H](O[C@H]2[C@H](O)[C@@H](O)[C@@H](O[C@H]3[C@H](O)[C@@H](O)[C@@H](O[C@H]4[C@H](O)[C@@H](O)[C@@H](O[C@H]5[C@H](O)[C@@H](O)[C@@H](O[C@H]6[C@H](O)[C@@H](O)C(O)O[C@@H]6CO)O[C@@H]5CO)O[C@@H]4CO)O[C@@H]3CO)O[C@@H]2CO)[C@H](O)[C@@H](O)[C@@H]1O` (some centres unmarked) [Maltohexaose]: the “Amount of maltose-1-phosphate produced” value in the test with M-1-P-producing enzyme [2] was 49.6 µM. In the test on M-1-P-producing enzyme [1], the “Product (Peak area x 10^6): DP=3” value is on record as 0.37 x 10^6, the “Product (Peak area x 10^6): DP=4” value was 10.20 x 10^6, the “Product (Peak area x 10^6): DP=5” value is reported as 0.00 x 10^6 and the “Product (Peak area x 10^6): DP=6” value is listed as 8.87 x 10^6. In addition, in the test with M-1-P-producing enzyme [1], the “Product (Peak area x 10^6): DP=7” value is reported as 0.00 x 10^6, the “Product (Peak area x 10^6): DP=8” value was 5.04 x 10^6, the “Product (Peak area x 10^6): DP=9” value is listed as 0.00 x 10^6 and the “Product (Peak area x 10^6): DP=10” value is on record as 3.96 x 10^6. In the test with M-1-P-producing enzyme [1], the “Product (Peak area x 10^6): DP=11” value is reported as 0.00 x 10^6, the “Product (Peak area x 10^6): Glucose” value is recorded as 0.05 x 10^6 and the “Product (Peak area x 10^6): Maltose” value is listed as 0.61 x 10^6.

`OC[C@H]1O[C@H](O[C@H]2[C@H](O)[C@@H](O)[C@@H](O[C@H]3[C@H](O)[C@@H](O)[C@@H](O[C@H]4[C@H](O)[C@@H](O)[C@@H](O[C@H]5[C@H](O)[C@@H](O)C(O)O[C@@H]5CO)O[C@@H]4CO)O[C@@H]3CO)O[C@@H]2CO)[C@H](O)[C@@H](O)[C@@H]1O` (some centres unmarked) [Maltopentaose]: the “Amount of maltose-1-phosphate produced” value in the test on M-1-P-producing enzyme [2] was 1.04 µM. Further, in the test on M-1-P-producing enzyme [1], the “Product (Peak area x 10^6): DP=3” value is 0.51 x 10^6, the “Product (Peak area x 10^6): DP=4” value is reported as 0.58 x 10^6, the “Product (Peak area x 10^6): DP=5” value is 26.40 x 10^6 and the “Product (Peak area x 10^6): DP=6” value was 0.00 x 10^6. In the test with M-1-P-producing enzyme [1], the “Product (Peak area x 10^6): DP=7” value is 0.52 x 10^6, the “Product (Peak area x 10^6): DP=8” value is listed as 0.00 x 10^6, the “Product (Peak area x 10^6): DP=9” value is listed as 0.00 x 10^6 and the “Product (Peak area x 10^6): DP=10” value was 0.00 x 10^6. Also, in the test with M-1-P-producing enzyme [1], the “Product (Peak area x 10^6): DP=11” value was 0.00 x 10^6, the “Product (Peak area x 10^6): Glucose” value was 0.09 x 10^6 and the “Product (Peak area x 10^6): Maltose” value is 0.27 x 10^6.

For the compound `OC[C@H]1O[C@H](O[C@H]2[C@H](O)[C@@H](O)[C@@H](O[C@H]3[C@H](O)[C@@H](O)[C@@H](O[C@H]4[C@H](O)[C@@H](O)C(O)O[C@@H]4CO)O[C@@H]3CO)O[C@@H]2CO)[C@H](O)[C@@H](O)[C@@H]1O` (some centres unmarked) [Maltotetraose], in the test on M-1-P-producing enzyme [1], the “Product (Peak area x 10^6): DP=3” value is on record as 1.25 x 10^6, the “Product (Peak area x 10^6): DP=4” value is on record as 30.80 x 10^6, the “Product (Peak area x 10^6): DP=5” value is 0.00 x 10^6 and the “Product (Peak area x 10^6): DP=6” value was 0.36 x 10^6. For the same compound, in the test with M-1-P-producing enzyme [1], the “Product (Peak area x 10^6): DP=7” value was 0.00 x 10^6, the “Product (Peak area x 10^6): DP=8” value is given as 0.00 x 10^6, the “Product (Peak area x 10^6): DP=9” value is reported as 0.00 x 10^6 and the “Product (Peak area x 10^6): DP=10” value was 0.00 x 10^6. In the test on M-1-P-producing enzyme [1], the “Product (Peak area x 10^6): DP=11” value is recorded as 0.00 x 10^6, the “Product (Peak area x 10^6): Glucose” value is reported as 0.19 x 10^6 and the “Product (Peak area x 10^6): Maltose” value was 0.15 x 10^6.

With `OC[C@H]1O[C@H](O[C@H]2[C@H](O)[C@@H](O)[C@@H](O[C@H]3[C@H](O)[C@@H](O)C(O)O[C@@H]3CO)O[C@@H]2CO)[C@H](O)[C@@H](O)[C@@H]1O` (some centres unmarked) [Maltotriose], in the test on M-1-P-producing enzyme [1], the “Product (Peak area x 10^6): DP=3” value is listed as 33.27 x 10^6, the “Product (Peak area x 10^6): DP=4” value is 0.12 x 10^6, the “Product (Peak area x 10^6): DP=5” value was 0.00 x 10^6 and the “Product (Peak area x 10^6): DP=6” value was 0.00 x 10^6. Besides, in the test on M-1-P-producing enzyme [1], the “Product (Peak area x 10^6): DP=7” value is on record as 0.00 x 10^6, the “Product (Peak area x 10^6): DP=8” value was 0.00 x 10^6, the “Product (Peak area x 10^6): DP=9” value is 0.00 x 10^6 and the “Product (Peak area x 10^6): DP=10” value is reported as 0.00 x 10^6. For the same compound, in the test with M-1-P-producing enzyme [1], the “Product (Peak area x 10^6): DP=11” value was 0.00 x 10^6, the “Product (Peak area x 10^6): Glucose” value is 0.52 x 10^6 and the “Product (Peak area x 10^6): Maltose” value was 1.84 x 10^6.
